# From patent US8507536B2, “Gonadotropin-releasing hormone receptor antagonists and methods relating thereto” (Neurocrine Biosciences, Inc., priority 2007, dated 2013)
# pKi: −log10 of the molar value.
# Biological target: T1, human GnRH receptor (Homo sapiens, UniProt P30968)
# T1 construct: expressed in transfected cells; membrane preparations
# T1 sequence (P30968 1-328): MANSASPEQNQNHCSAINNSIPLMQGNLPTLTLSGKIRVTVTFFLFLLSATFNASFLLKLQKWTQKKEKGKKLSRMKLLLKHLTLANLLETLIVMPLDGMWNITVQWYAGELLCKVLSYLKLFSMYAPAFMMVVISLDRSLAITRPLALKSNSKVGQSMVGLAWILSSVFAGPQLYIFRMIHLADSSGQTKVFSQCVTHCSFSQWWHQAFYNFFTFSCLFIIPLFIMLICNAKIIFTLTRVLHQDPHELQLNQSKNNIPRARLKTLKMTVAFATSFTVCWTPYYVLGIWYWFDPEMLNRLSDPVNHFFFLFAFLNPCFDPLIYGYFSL
# Test: peptide competitive human receptor binding assays (radioligand displacement)
# Conditions: tested in one or more of the peptide competitive human receptor binding assays
# Method: HEK293 cells stably transfected with the human GnRH receptor are grown for two days after achieving confluence then are harvested by striking tissue culture flasks against a firm surface. Cells are collected by centrifugation at 1000 g for […]. Cell pellets are resuspended in 5% sucrose and homogenized using a polytron homogenizer for two 15 second homogenization steps. Cell homogenates are then centrifuged for 5 minutes at 3000 g to remove nuclei and the supernatant subsequently centrifuged for 30 minutes at 44,000 g to collect the membrane fraction. The membrane pellet is resuspended in GnRH binding buffer (10 mM HEPES, pH 7.5, 150 mM NaCl and 0.1% BSA) and aliquots immediately snap-frozen in liquid nitrogen and stored at −80° C. Protein content of the membrane suspension is determined using the Bio-Rad protein assay kit (Bio-Rad).
# RBL cells stably transfected with the human GnRH receptor are grown to 80% confluency prior to harvesting. The cells are incubated at 37° C. for 10 min in 0.5 mM EDTA/PBS (Ca^++, Mg^++ free), and are dislodged from the plate by gentle rapping of the flasks. Cells are collected and pelleted by centrifugation at 1000 g for 5 minutes. Cell pellets are resuspended in buffer (DPBS supplemented with 10 mM MgCl2, 2 mM EGTA, pH=7.4), and cell lysis is performed using a pressure cell and applying N2 at a pressure of 900 psi for 30 min at 4° C. Unbroken cells and larger debris were removed by centrifugation at 1200 g for 10 min at 4° C. The cell membrane supernatant is then centrifuged at 45,000 g and the resulting membrane pellet is resuspended in assay buffer and homogenized on ice using a tissue homogenizer. Protein concentrations are determined using the Coomassie Plus Protein Reagent kit. Membranes are aliquoted and stored at −80° C. until ready for use.
# Radioligand binding displacement assays using the peptide radioligands are performed in buffer containing 10 mM HEPES, 150 mM NaCl and 0.1% BSA, pH=7.5. Radioligand binding assays employing the use of [^3H]-1-(2,6-difluorobenzyl)-3-[(2R)-amino-2-phenethyl]-5-(2-fluoro-3-methoxyphenyl)-6-methyluracil (here the 3-methoxy group is tritiated) are run in buffer containing 50 mM Tris, 150 mM NaCl, 5 mM MgCl2, 0.01% saponin and 0.5 mM EDTA, pH=7.5. Radioligand displacement assays are performed by incubating radioligand ([^125I-Tyr^5, DLeu^6, NMeLeu^7, Pro^9-NEt]GnRH (0.1 nM), [His^5, ^125I-DTyr^6]GnRH (0.2 nM) (31) or [^3H]-1-(2,6-difluorobenzyl)-3-[(2R)-amino-2-phenethyl]-5-(2-fluoro-3-methoxyphenyl)-6-methyluracil (1 nM)), unlabeled competitors at concentrations ranging from 0.3 pM to 10 μM, and membranes for 2 hrs at rt. 10 to 20 μg protein/well is used from membrane preparations for human, monkey and rabbit GnRH receptor. 5 μg/well and 60 μg/well of membranes are used for rat and dog GnRH receptors, respectively. Binding assays are performed in either Millipore 96-well GF/C filtration plates (for ([^125I-Tyr^5, DLeu^6, NMeLeu^7, Pro^9-NEt]GnRH assays), or in 96 well low binding plates, which are subsequently filtered onto GF/C Unifilters. Filters are pretreated with 0.5% PEI for 30 min prior to use. Reactions are terminated by rapid vacuum filtration, and the filters are washed twice with 250 μL ice cold PBS pH=7.4 (0.01% Tween-20 is included in wash media for [His^5, ^125I-DTyr^6]GnRH and [^3H]-1-(2,6-difluorobenzyl)-3-[(2R)-amino-2-phenethyl]-5-(2-fluoro-3-methoxyphenyl)-6-methyluracil radioligands). The filters are dried, and the Millipore filters are monitored for radioactivity using a Cobra II gamma counter (Perkin Elmer Life Sciences). For assays filtered onto the GF/C Unifilter plates, 50 μL scintillation fluid is added to each filter, and radioactivity is monitored using a TopCount NXT. For iodinated radioligands, total radioligand is monitored on a gamma counter, and for the tritiated radioligand, total radioligand is monitored using a Perkin Elmer 1600TR liquid scintillation counter. […]
row,pKi,Structure (SMILES)
1,≥ 7.00,"CN(c1ccccn1)S(=O)(=O)c1cc(-c2cnc(C(F)(F)F)cc2C#N)c(Cl)cc1OCC(=O)O [Example 18-3, [5-chloro-4-(4-cyano-6-trifluoromethyl-pyridin-3-yl)-2-(methyl-pyridin-2-yl-sulfamoyl)-phenoxy]-acetic acid]"
2,≥ 7.00,COc1cc(Cl)c(-c2cnc(C(F)(F)F)cc2C#N)cc1S(=O)(=O)N(C)Cc1cccc(C)n1 [Example 15-38]
3,≥ 7.00,N#Cc1cc2ccccc2nc1-c1cc(S(=O)(=O)N2CCCCc3ccccc32)ccc1Cl [Example 4-18]
4,≥ 7.00,COc1cc(Cl)c(-c2cnc(C(F)(F)F)cc2C#N)cc1S(=O)(=O)N(C)c1ccc(F)cc1 [Example 15-6]
5,≥ 7.00,"CC1(C)CCN(S(=O)(=O)c2cc(-c3cnc(C(F)(F)F)cc3C#N)c(Cl)cc2OCC(=O)O)c2ccccc21 [Example 12-2, [5-chloro-4-(4-cyano-6-trifluoromethyl-pyridin-3-yl)-2-(4,4-dimethyl-3,4-dihydro-2H-quinoline-1-sulfonyl)-phenoxy]-acetic acid]"
6,≥ 7.00,COc1cc(Cl)c(-c2cnc(C(F)(F)F)cc2C#N)cc1S(=O)(=O)N(C)c1cccc(Cl)c1 [Example 15-3]
7,≥ 7.00,"CC1(C)CCN(S(=O)(=O)c2cc(-c3cnc(C(F)(F)F)cc3C#N)c(Cl)cc2OCCO)c2ccccc21 [Example 11-2, 5-[2-chloro-5-(4,4-dimethyl-3,4-dihydro-2H-quinoline-1-sulfonyl)-4-(2-hydroxy-ethoxy)-phenyl]-2-trifluoromethyl-isonicotinonitrile]"
8,≥ 7.00,COc1cc(Cl)c(-c2cnc(C(F)(F)F)cc2C#N)cc1S(=O)(=O)N(C)c1ccc(Cl)cc1 [Example 15-10]
9,≥ 7.00,COc1cc(Cl)c(-c2cnc(C(F)(F)F)cc2C#N)cc1S(=O)(=O)N(C)Cc1ccco1 [Example 15-39]
10,≥ 7.00,COc1cc(Cl)c(-c2cnc(C(F)(F)F)cc2C#N)cc1S(=O)(=O)N1CCC(C)(C)c2ccccc21 [Example 15-2]
11,≥ 7.00,"CC1(C)CCN(S(=O)(=O)c2cc(-c3cnc(C(F)(F)F)cc3C#N)c(Cl)cc2OCCCO)c2ccccc21 [Example 11-3, 5-[2-chloro-5-(4,4-dimethyl-3,4-dihydro-2H-quinoline-1-sulfonyl)-4-(3-hydroxy-propoxy)-phenyl]-2-trifluoromethyl-isonicotinonitrile]"
12,≥ 7.00,COc1cc(Cl)c(-c2cnc(C(F)(F)F)cc2C#N)cc1S(=O)(=O)N(C)c1ccc(Cl)c(Cl)c1 [Example 15-8]
13,≥ 7.00,Cc1cc(Cl)ncc1-c1cc(S(=O)(=O)N2CCCC(=O)c3ccccc32)ccc1Cl [Example 4-2]
14,≥ 7.00,CC1(C)CCN(S(=O)(=O)c2ccc(Cl)c(-c3cnc(C(F)(F)F)cc3C#N)c2)c2ccccc21 [Example 4-16]
15,≥ 7.00,N#Cc1cc(C(F)(F)F)ncc1-c1cc(S(=O)(=O)N2CCCCc3ccccc32)c(OCC(=O)O)cc1Cl [Example 7-5]
16,≥ 7.00,N#Cc1cc(C(F)(F)F)ncc1-c1cc(S(=O)(=O)N2CCOCc3ccccc32)ccc1Cl [Example 4-17]
17,≥ 7.00,Cc1cc(Cl)ncc1-c1cc(S(=O)(=O)N2CCOc3ccccc32)ccc1Cl [Example 4-4]
18,≥ 7.00,COc1cc(Cl)c(-c2cnc(C(F)(F)F)cc2C#N)cc1S(=O)(=O)N(C)Cc1ccc(F)cc1 [Example 15-33]

row,pKi,Structure (SMILES)
1,≥ 7.00,COc1cc(Cl)c(-c2cnc(C(F)(F)F)cc2C#N)cc1S(=O)(=O)N(C)CC(C)C [Example 15-21]
2,≥ 7.00,COc1cc(Cl)c(-c2cnc(C(F)(F)F)cc2C#N)cc1S(=O)(=O)N(C)c1ccccc1C [Example 15-5]
3,≥ 7.00,"CC1(C)CCN(S(=O)(=O)c2cc(-c3cnc(C(F)(F)F)cc3C#N)c(Cl)cc2OCCCC(=O)O)c2ccccc21 [Example 12-1, 4-[5-chloro-4-(4-cyano-6-trifluoromethyl-pyridin-3-yl)-2-(4,4-dimethyl-3,4-dihydro-2H-quinoline-1-sulfonyl)-phenoxy]-butyric acid]"
4,≥ 7.00,COc1cc(Cl)c(-c2cnc(C(F)(F)F)cc2C#N)cc1S(=O)(=O)N(C)[C@H](C)c1ccccc1 [Example 15-43]
5,≥ 7.00,Cc1cc(Cl)ncc1-c1cc(S(=O)(=O)N2CCC(C)(C)c3ccccc32)ccc1Cl [Example 4-5]
6,≥ 7.00,CC1(C)CCN(S(=O)(=O)c2ccc(Cl)c(-c3cnc(Cl)cc3Cl)c2)c2ccccc21 [Example 5-5]
7,≥ 7.00,Cc1cc(C#N)ncc1-c1cc(S(=O)(=O)N2CCCCc3ccccc32)c(OCCCC(=O)O)cc1Cl [Example 7-3]
8,≥ 7.00,"Cc1cc(C#N)ncc1-c1cc(S(=O)(=O)N2CCCCc3ccccc32)c(OCCCO)cc1Cl [Example 9-1, 5-[2-chloro-4-(3-hydroxy-propoxy)-5-(2,3,4,5-tetrahydro-benzo[b]azepine-1-sulfonyl)-phenyl]-4-methyl-pyridine-2-carbonitrile]"
9,≥ 7.00,"N#Cc1cc(C(F)(F)F)ncc1-c1cc(S(=O)(=O)N2CCCCc3ccccc32)c(OCCC(=O)O)cc1Cl [Example 10-2, 3-[5-chloro-4-(4-cyano-6-trifluoromethyl-pyridin-3-yl)-2-(2,3,4,5-tetrahydro-benzo[b]azepine-1-sulfonyl)-phenoxy]-propionic acid]"
10,≥ 7.00,CC1(C)CCN(S(=O)(=O)c2ccc(Cl)c(-c3nc4ccccc4cc3C#N)c2)c2ccccc21 [Example 4-19]
11,≥ 7.00,Cc1cc(Cl)c(-c2cc(S(=O)(=O)N3CCCc4ccccc43)ccc2Cl)cn1 [Example 4-8]
12,≥ 7.00,N#Cc1cc2ccccc2nc1-c1cc(S(=O)(=O)N2CCCCc3ccccc32)c(OCCCC(=O)O)cc1Cl [Example 7-4]
13,≥ 7.00,Cc1cc(C(F)(F)F)ncc1-c1cc(S(=O)(=O)N2CCOc3ccccc32)ccc1Cl [Example 4-11]
14,≥ 7.00,Cc1cc(C(F)(F)F)ncc1-c1cc(S(=O)(=O)N2CCCCc3ccccc32)ccc1Cl [Example 4-9]
15,≥ 7.00,"COC(=O)Cc1cc(Cl)c(-c2cnc(C(F)(F)F)cc2C#N)cc1S(=O)(=O)N1CCC(C)(C)c2ccccc21 [Example 16-1, [5-Chloro-4-(4-cyano-6-trifluoromethyl-pyridin-3-yl)-2-(4,4-dimethyl-3,4-dihydro-2H-quinoline-1-sulfonyl)-phenyl]-acetic acid methyl ester]"
16,≥ 7.00,"N#Cc1cc(C(F)(F)F)ncc1-c1cc(S(=O)(=O)N2CCCCc3ccccc32)c(OCCCO)cc1Cl [Example 9-2, 5-[2-Chloro-4-(3-hydroxy-propoxy)-5-(2,3,4,5-tetrahydro-benzo[b]azepine-1-sulfonyl)-phenyl]-2-trifluoromethyl-isonicotinonitrile]"
17,≥ 7.00,"Cc1cc(Cl)ncc1-c1cc(S(=O)(=O)N2CCCCc3ccccc32)ccc1Cl [Example 4-1, 1-[4-chloro-3-(6-chloro-4-methyl-pyridin-3-yl)-benzenesulfonyl]-2,3,4,5-tetrahydro-1H-1-benzazepine]"
